Test results published in the supplement of paper PMC10307832.

What was measured:
Assay in all cases: relative viability (nuclei count vs DMSO), 5 days (fraction); higher = more cells survive
Kobe2602 + Trametinib = compound: C1=CC(=CC=C1NC(=S)NNC2=C(C=C(C=C2[N+](=O)[O-])C(F)(F)F)[N+](=O)[O-])F [Kobe2602] + CC(=O)Nc1cccc(-n2c(=O)n(C3CC3)c(=O)c3c(Nc4ccc(I)cc4F)n(C)c(=O)c(C)c32)c1 [Trametinib] (partner 0.02 µM)
Outline: (§1)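 Values are medians from duplicate plates. Each reflects relative viability, defined as the nuclei count of treated wells over that of vehicle wells. Lung cancer cell lines in 1536-well plates were pin-tool dosed one day after seeding with one drug alone or with a fixed anchor-drug dose plus five library-drug doses (not always all listed) in √10 steps, then fixed, stained and imaged at 4× after 5 days.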

[1] = compound: COc1cc2nccc(Oc3ccc(NC(=O)C4(C(=O)Nc5ccc(F)cc5)CC4)cc3)c2cc1OC [Cabozantinib] + CC(=O)Nc1cccc(-n2c(=O)n(C3CC3)c(=O)c3c(Nc4ccc(I)cc4F)n(C)c(=O)c(C)c32)c1 [Trametinib] (partner 0.02 µM)
Outline: as §1

Zosuquidar + AZD7762 = compound: O[C@@H](COc1cccc2ncccc12)CN1CCN([C@@H]2c3ccccc3[C@@H]3[C@H](c4ccccc42)C3(F)F)CC1 [Zosuquidar] + NC(=O)Nc1cc(-c2cccc(F)c2)sc1C(=O)N[C@H]1CCCNC1 [AZD7762] (partner 0.2 µM)
Outline: as §1

Zosuquidar + Olaparib = compound: O[C@@H](COc1cccc2ncccc12)CN1CCN([C@@H]2c3ccccc3[C@@H]3[C@H](c4ccccc42)C3(F)F)CC1 [Zosuquidar] + O=C(c1cc(Cc2n[nH]c(=O)c3ccccc23)ccc1F)N1CCN(C(=O)C2CC2)CC1 [Olaparib] (partner 8 µM)
Outline: as §1

| Cell Line | relative viability (Kobe2602 + Trametinib; first compound 0.2 µM) | relative viability (Kobe2602 + Trametinib; first compound 0.6325 µM) | relative viability (Kobe2602 + Trametinib; first compound 2 µM) | relative viability (Kobe2602 + Trametinib; first compound 6.325 µM) | relative viability (Kobe2602 + Trametinib; first compound 20 µM) | relative viability ([1]; first compound 0.02 µM) | relative viability ([1]; first compound 0.06325 µM) | relative viability ([1]; first compound 0.2 µM) | relative viability ([1]; first compound 0.6325 µM) | relative viability ([1]; first compound 2 µM) | relative viability (Zosuquidar + AZD7762; first compound 0.01 µM) | relative viability (Zosuquidar + AZD7762; first compound 0.03162 µM) | relative viability (Zosuquidar + AZD7762; first compound 0.1 µM) | relative viability (Zosuquidar + AZD7762; first compound 0.3162 µM) | relative viability (Zosuquidar + AZD7762; first compound 1 µM) | relative viability (Zosuquidar + Olaparib; first compound 0.01 µM) | relative viability (Zosuquidar + Olaparib; first compound 0.03162 µM) | relative viability (Zosuquidar + Olaparib; first compound 0.1 µM) | relative viability (Zosuquidar + Olaparib; first compound 0.3162 µM) | relative viability (Zosuquidar + Olaparib; first compound 1 µM) |
| --- | --- | --- | --- | --- | --- | --- | --- | --- | --- | --- | --- | --- | --- | --- | --- | --- | --- | --- | --- | --- |
| 201T | 0.711 | 0.715 | 0.741 | 0.771 | 0.677 | 0.71 | 0.731 | 0.686 | 0.729 | 0.727 | 0.592 | 0.623 | 0.67 | 0.685 | 0.731 | 0.801 | 0.821 | 0.816 | 0.836 | 0.862 |
| A549 | – | – | – | – | – | – | – | – | – | – | – | – | – | – | – | 0.301 | 0.379 | 0.306 | 0.371 | 0.35 |
| A-427 | 0.804 | 0.745 | 0.793 | 0.739 | 0.742 | 0.729 | 0.801 | 0.772 | 0.762 | 0.743 | 0.759 | 0.798 | 0.693 | 0.764 | 0.705 | 0.757 | 0.711 | 0.76 | 0.771 | 0.819 |
| ABC-1 | – | – | – | – | – | – | – | – | – | – | 0.69 | 0.864 | 0.665 | 0.717 | 0.733 | 0.892 | 0.684 | 1.09 | 0.78 | 0.901 |
| BEN | 1.01 | 1.16 | 1.17 | 1.06 | 1.14 | 0.979 | 1.08 | 0.998 | 0.982 | 0.77 | 0.738 | 0.615 | 0.518 | 0.724 | 0.589 | 1.15 | 0.953 | 0.883 | 1.02 | 0.97 |
| CAL-12T | 0.331 | 0.337 | 0.37 | 0.412 | 0.318 | 0.331 | 0.357 | 0.33 | 0.371 | 0.365 | 0.586 | 0.626 | 0.469 | 0.632 | 0.738 | 0.739 | 0.715 | 0.741 | 0.793 | 0.706 |
| COR-L23 | 0.569 | 0.587 | 0.575 | 0.549 | 0.679 | 0.666 | 0.679 | 0.679 | 0.623 | 0.576 | – | – | – | – | – | 0.363 | 0.38 | 0.333 | 0.355 | 0.37 |
| COR-L 105 | 0.378 | 0.49 | 0.417 | 0.395 | 0.402 | 0.422 | 0.377 | 0.4 | 0.405 | 0.481 | – | – | – | – | – | 0.641 | 0.711 | 0.662 | 0.761 | 0.582 |
| Calu-6 | – | – | – | – | – | – | – | – | – | – | – | – | – | – | – | 0.583 | 0.677 | 0.714 | 0.605 | 0.594 |
| ChaGo-K-1 | 0.883 | 0.884 | 0.912 | 0.769 | 0.855 | 0.838 | 0.906 | 0.928 | 0.893 | 0.899 | 0.807 | 0.799 | 0.896 | 0.818 | 0.93 | 0.388 | 0.468 | 0.434 | 0.474 | 0.413 |
| EBC-1 | – | – | – | – | – | – | – | – | – | – | – | – | – | – | – | 0.692 | 0.797 | 0.638 | 0.827 | 0.705 |
